According to US10842727B2, “Cosmetic composition comprising white rose flower extract for skin whitening and improving skin wrinkle” (CHUNGBUK NATIONAL UNIVERSITY INDUSTRY-ACADEMIC COOPERATION …, priority 2014, dated 2020):

Legend:
[1] = tested on: collagen matrix metalloproteinase-1 (MMP-1); assay: Collagen matrix metalloproteinase-1 (MMP-1) activity inhibition, collagenase type-1 on bovine tendon collagen, ninhydrin absorbance 600 nm; assay type: biochemical; conditions: method of Example 3
Method: As part of measuring a wrinkle alleviation effect of the white rose petal extract, effects of inhibiting activity of collagen matrix metalloproteinase-1 (MMP-1) of the extracts were measured with reference to the guideline of “beauty-related functional tests (pp. 821-858)” of Korea health official compendium research society foundation.
When simply describing the effect, 25 mg of bovine tendon collagen was dissolved in a 0.05 M tris(hydroxymethyl)-methyl-2-aminoethane sulfonate (TES) buffer and then left for 15 minutes at 37° C. Next, a test material for each concentration was added and then additionally reacted with collagenase type-1 for 5 hours at 37° C. 0.2 mL of a reaction solution was taken and added to 1 mL of a buffer [4% ninhydrin in methyl cellosolve (2-methoxyethanol)+0.2 M sodium citrate with 0.71 mM stannous chloride]. The reaction solution was boiled for 20 minutes, added with n-propanol, and then left for 15 minutes and then absorbance was measured at 600 nm. On the basis of a change in absorbance when only the buffer without the white rose fractions was added as a reference (100%), reduction of the absorbance caused by the white rose fractions for each concentration was represented by an inhibition rate.

B16 mouse melanoma cells = assay: Melanin synthesis inhibition in α-MSH-treated cells; assay type: cell-based; conditions: method of Example 5
Method: In order to more definitize a skin whitening effect of the white rose petal extract, the inventors measured a melanin synthesis inhibitory effect of the white rose petal extract at a cell level with reference to the guideline of “beauty-related functional tests (pp. 821-858)” of Korea health official compendium research society foundation (2004).
When simply describing this, B16 mouse melanoma cells were dispensed to 1×10^4 cells/well (0.5 mL) in a […] plate and cultured for 24 hours. The B16 mouse melanoma cells was treated with the white rose fraction for each concentration and a α-melanocyte stimulating hormone (MSH) and additionally cultured for 3 days at 37° C. The cells were lysed by adding 0.15 mL of 1 M NaOH to a culture medium and boiled for 5 minutes to elute the melanin. 0.1 mL of the eluate was taken and absorbance at 490 nm was measured. A standard calibration curve was created by synthetic melanin and the concentration was quantified and an inhibition rate for each concentration of the white rose fraction was proposed based on a melanin production amount when the sample was not treated as a reference (100%).

mushroom tyrosinase = assay: Melanin synthase (tyrosinase) inhibition with L-DOPA, absorbance 475 nm; assay type: biochemical; conditions: method of Example 4
Method: Meanwhile, in order to measure a skin whitening effect of the white rose petal extract, an effect of inhibiting activity of tyrosinase as melanin synthase was measured with reference to the guideline of “beauty-related functional tests (pp. 821-858)” of Korea health official compendium research society foundation. […] In this case, on the basis of a change in absorbance when only the buffer without the white rose fractions was added as a reference (100%), reduction of the absorbance caused by the white rose fractions for each concentration was represented by an inhibition rate.

tyrosinase inhibition activity (in words) (mushroom tyrosinase): excellent tyrosinase inhibition activity
SMILES: COc1c(CC=C(C)C)c(O)c2c(=O)c3c(O)ccc(OC)c3oc2c1CC=C(C)C [3,5-di-o-methyl-gartanin]
inhibition effect of MMP-1 (in words) [1]: particularly excellent inhibition effect of MMP-1 | melanin synthesis inhibitory effect (in words) (B16 mouse melanoma cells): efficiently inhibited
